Data on 9 compounds can be found in patent US20160355530A1, “HEPATITIS C INHIBITORS AND USES THEREOF” (AbbVie Inc., priority 2010, published 2016).

Assay [1] addresses T1, HCV NS5B polymerase 1a-H77 (Hepatitis C virus genotype 1a, UniProt P27958).
T1 construct: six-histidine tag; made in house; host or cells: E. coli
Nature of the assay: biochemical. The arrangement: species or system HCV genotype 1a. The settings on record: enzyme, strain 1a H77; read-out: HCV Polymerase Strain 1a H77 IC50. On the procedure:
(§1) Purified HCV NS5B polymerase enzymes were used for polymerase inhibition assays. All recombinant HCV polymerases contained the first 570 amino acids of the 591 amino acid native protein sequence and a six-histidine tag at the N-terminus or C-terminus to facilitate purification by affinity chromatography. The DNA nucleotide sequence for the HCV polymerase 1b BK strain was codon optimized for expression in E. coli. A synthetic gene was prepared from a series of overlapping oligonucleotides that were filled in using a DNA polymerase and amplified by PCR. The patient isolate HCV polymerases were cloned by RT-PCR methods using HCV RNA extracted from the serum of infected subjects obtained from ProMedDx and BioCollections (genotypes 2a, 2b, 3a, and 4a). Laboratory strains were cloned from plasmid DNA (1a-H77 or 1a-H77-C316Y) or from existing replicon cells (1b Rice). In all cases the amplified DNA was cloned into a protein expression vector (typically a pET vector from Novagen) and then multiple clones were sequenced to identify one whose NS5B sequence agreed with the population sequence. This sequence-confirmed clone was then transfected into E. coli for protein expression and purification. E. coli cultures were grown to a maximum optical density (OD) of 2-3 and then induced with 0.4 mM isopropyl beta-D-thiogalactopyranoside (IPTG) and grown for 20 hours at 20° C.
(§2) Proteins were purified using nickel affinity chromatography, and additional column steps were added including, ion exchange, size exclusion, hydrophobic ion, and poly-U affinity chromatography, as needed, depending on the sample being purified. The template RNA used in the polymerase enzymatic assay was a 2.1 kb construct that corresponds to the 3′-end of an HCV genotype 1b negative strand RNA.
(§3) The reaction was initiated by the addition of 20 μM CTP, 20 μM ATP, 0.284 μM (0.5 μCi) of 5,6-[^3H] UTP, 5 nM template RNA and 0.1 U/μL RNase inhibitor (RNasin, Promega), and allowed to proceed for three hours at 30° C. The final reaction volume was 50 μL. The reaction was terminated by the addition of 50 uL of 4 mM spermine in 10 mM Tris-HCl, pH 7.5, 1 mM EDTA. The quenched reaction was allowed to incubate for at least 15 minutes at room temperature, and then the precipitated RNA was captured by filtration through a glass fiber filter (GF/B, Millipore) in a 96 well format. The filter plate was washed five times with 200 μL of 2 mM spermine, 10 mM Tris-HCl, pH 8.0, 1 mM EDTA, and two times with ethanol. After drying thoroughly in air, 30 μL of Microscint-20 scintillation cocktail (Perkin Elmer) was added to each well, and the retained cpm were determined by scintillation counting. IC50 values were determined by nonlinear regression.
(§4) % Inhibition=100*[[I]/([I]+[IC50])] equation 1
(§5) V=kcat[S]/2(Km+[S])*(sqrt((IC50+I−E)̂2+(4*IC50*E))−(IC50+I−E)) equation 2

The target of assay [2] is T2, HCV NS5B polymerase 1a-H77-C316Y (Hepatitis C virus genotype 1a, UniProt P27958, C2736Y).
T2 construct: six-histidine tag; made in house; host or cells: E. coli
T2 sequence (P27958 2421-2990 C2736Y): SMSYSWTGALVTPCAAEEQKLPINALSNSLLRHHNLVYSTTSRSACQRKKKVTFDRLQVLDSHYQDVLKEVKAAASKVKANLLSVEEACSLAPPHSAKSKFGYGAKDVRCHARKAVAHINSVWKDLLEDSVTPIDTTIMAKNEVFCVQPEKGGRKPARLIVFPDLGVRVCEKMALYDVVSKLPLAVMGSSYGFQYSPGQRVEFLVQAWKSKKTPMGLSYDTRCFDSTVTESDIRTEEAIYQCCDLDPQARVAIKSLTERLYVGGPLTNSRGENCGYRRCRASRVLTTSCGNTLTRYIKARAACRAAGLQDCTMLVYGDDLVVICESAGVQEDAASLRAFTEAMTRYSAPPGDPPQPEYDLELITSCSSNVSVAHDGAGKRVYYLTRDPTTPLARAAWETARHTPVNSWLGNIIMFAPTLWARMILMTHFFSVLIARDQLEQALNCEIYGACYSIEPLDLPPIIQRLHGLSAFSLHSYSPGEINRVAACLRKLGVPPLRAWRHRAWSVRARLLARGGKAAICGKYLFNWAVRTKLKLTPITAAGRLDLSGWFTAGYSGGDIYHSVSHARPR
The experiment in a line: biochemical. On the set-up: species or system HCV genotype 1a. On the procedure:
as §1, §2, §3, §4, §5

In assay [3] the test system is HCV NS5B polymerase 1a-H77-C316Y. The experiment in a line: biochemical. The arrangement: species or system HCV genotype 1a. Conditions: ratio of enzyme IC50s, 1a H77-C316Y / 1a H77. On the procedure: as §1, §2, §3, §4, §5
The target of assay [4] is T3, HCV NS5B polymerase 1b BK strain (Hepatitis C virus genotype 1b, UniProt P26663).
T3 construct: six-histidine tag; made in house; host or cells: E. coli
T3 sequence (P26663 2420-2989): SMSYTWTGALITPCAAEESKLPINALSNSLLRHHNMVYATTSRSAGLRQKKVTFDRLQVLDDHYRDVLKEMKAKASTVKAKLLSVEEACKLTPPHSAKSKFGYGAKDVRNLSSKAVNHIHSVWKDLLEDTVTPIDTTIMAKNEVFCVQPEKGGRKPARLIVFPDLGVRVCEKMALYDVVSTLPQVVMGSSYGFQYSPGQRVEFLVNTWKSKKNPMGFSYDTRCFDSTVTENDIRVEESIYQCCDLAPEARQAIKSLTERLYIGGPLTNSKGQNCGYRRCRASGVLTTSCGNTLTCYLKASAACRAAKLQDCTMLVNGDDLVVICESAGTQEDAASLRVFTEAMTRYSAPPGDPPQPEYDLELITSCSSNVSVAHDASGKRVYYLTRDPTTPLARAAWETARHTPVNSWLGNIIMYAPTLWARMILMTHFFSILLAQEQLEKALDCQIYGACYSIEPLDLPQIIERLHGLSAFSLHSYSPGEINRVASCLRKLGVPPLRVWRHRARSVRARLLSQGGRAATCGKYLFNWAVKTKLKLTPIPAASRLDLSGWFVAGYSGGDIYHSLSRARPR
The experiment in a line: HCV NS5B polymerase enzymatic inhibition assay, strain 1b BK. It is filed as biochemical. The settings on record: enzyme, strain 1b BK; read-out: HCV Polymerase Strain 1b BK IC50. As to the method:
as §1, §2, §3, §4, §5

Assay [5] has as its system HCV 1a-H77 subgenomic replicon. The experiment in a line: microbe, parasite or virus in culture. It is filed as cell-based, HCV genotype 1a. The settings on record: Hepatitis C virus, stable replicon.
For assay [6], the system named is HCV 1b-BB7 subgenomic replicon. The experiment in a line: microbe, parasite or virus in culture. It is filed as cell-based, HCV genotype 1b. The settings on record: Hepatitis C virus, stable replicon.
[7] abbreviates: 5% FBS, absence of human plasma, read-out: Stable Replicon 1a H77 5% FBS EC50.
[8] abbreviates: strain 1a H77, 5% FBS + 40% human plasma, read-out: 1a H77 5% FBS + 40% Human Plasma EC50.
The mark [9] stands for this setting: strain 1a H77, 5% FBS, no human plasma, read-out: 1a H77 5% FBS EC50.
Setting [10] is: strain 1a H77, 5% FBS, read-out: 1a H77 5% FBS EC50.
Setting [11] is: strain 1b BB7, 5% FBS + 40% human plasma, read-out: 1b BB7 5% FBS + 40% Human Plasma EC50.
Where [12] appears, read: strain 1b BB7, 5% FBS, no human plasma, read-out: 1b BB7 5% FBS EC50.
[13] abbreviates: strain 1b BB7, 5% FBS, read-out: 1b BB7 5% FBS EC50.

The structures appear in SMILES notation. pEC50, pIC50: −log10 of the molar value. Read-outs that look alike come from different tables or passages of the source.

T1 sequence (P27958 2421-2990): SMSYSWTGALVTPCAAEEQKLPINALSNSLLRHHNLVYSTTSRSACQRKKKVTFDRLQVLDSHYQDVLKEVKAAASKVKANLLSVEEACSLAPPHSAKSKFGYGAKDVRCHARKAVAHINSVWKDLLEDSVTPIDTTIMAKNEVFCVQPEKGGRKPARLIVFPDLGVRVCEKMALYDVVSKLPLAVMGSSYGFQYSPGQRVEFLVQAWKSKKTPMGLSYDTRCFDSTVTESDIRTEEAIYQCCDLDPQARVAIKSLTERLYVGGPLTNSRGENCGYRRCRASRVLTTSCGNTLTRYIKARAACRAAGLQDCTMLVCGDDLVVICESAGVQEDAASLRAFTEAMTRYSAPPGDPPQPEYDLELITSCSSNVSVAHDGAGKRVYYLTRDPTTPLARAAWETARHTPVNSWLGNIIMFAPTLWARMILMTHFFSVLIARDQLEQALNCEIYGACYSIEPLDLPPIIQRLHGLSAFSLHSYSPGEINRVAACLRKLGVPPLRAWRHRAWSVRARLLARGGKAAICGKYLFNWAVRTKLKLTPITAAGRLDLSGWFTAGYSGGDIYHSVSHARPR

With `CS(=O)(=O)N(CCC(O)CO)c1cc2oc(-c3ccc(F)cc3)c(-c3ncc[nH]3)c2cc1C1CC1` (stereo not shown) [Example 110, N-[5-cyclopropyl-2-(4-fluorophenyl)-3-(1H-imidazol-2-yl)-1-benzofuran-6-yl]-N-(3,4-dihydroxybutyl)methanesulfonamide], the figures for the pIC50 in assay [1], in assay [2] and in assay [4] were 8.19, 6.90 and 7.92, respectively. In assay [3], the “C316Y/1a Fold Resistance” value came out at 19 fold. In addition, the pEC50 was 7.84 in assay [5] (setting [7]); 6.69 in assay [5] (setting [8]); 7.84 in assay [5] (setting [9]); 7.84 in assay [5] (setting [10]); 6.50 in assay [6] (setting [11]); 7.78 in assay [6] (setting [12]). In assay [6] (setting [13]), the pEC50 is 7.78.
On to `CS(=O)(=O)N(CCN)c1cc2oc(-c3ccc(F)cc3)c(-c3ncc[nH]3)c2cc1C1CC1` [Example 111, N-(2-aminoethyl)-N-[5-cyclopropyl-2-(4-fluorophenyl)-3-(1H-imidazol-2-yl)-1-benzofuran-6-yl]methanesulfonamide], for which the figures for the pIC50 in assay [1], in assay [2] and in assay [4] were 8.00, 5.70 and 6.95, respectively. Moreover, the “C316Y/1a Fold Resistance” value in assay [3] is recorded as 201 fold. Also, the negative-log EC50 (pEC50) in assay [5] (setting [7]) is 6.82; in assay [5] (setting [8]), 6.00; in assay [5] (setting [9]) it was 6.82; in assay [5] (setting [10]) it was 6.82; in assay [6] (setting [11]) it was 7.04; in assay [6] (setting [12]) it was 7.39. For the same compound, the negative-log EC50 (pEC50) in assay [6] (setting [13]) is 7.39.
As for `COc1ccc(CN(c2cc3oc(-c4ccc(F)cc4)c(-c4ncc(C)[nH]4)c3cc2C2CC2)S(C)(=O)=O)cc1` [Example 188, N-[5-cyclopropyl-2-(4-fluorophenyl)-3-(5-methyl-1H-imidazol-2-yl)-1-benzofuran-6-yl]-N-(4-methoxybenzyl)methanesulfonamide], the results for the negative logarithm of the IC50 (pIC50) in assay [1], in assay [2] and in assay [4] were 7.81, 6.65 and 7.26, respectively. Moreover, the “C316Y/1a Fold Resistance” value in assay [3] is 15 fold. The negative logarithm of the EC50 (pEC50) in assay [5] (setting [7]) is 6.40; in assay [5] (setting [8]) it was 5.07; in assay [5] (setting [9]), 6.40; in assay [5] (setting [10]), 6.40; in assay [6] (setting [11]) it was 5.69; in assay [6] (setting [12]), 6.68. Moreover, the pEC50 in assay [6] (setting [13]) is 6.68.
Take `CS(=O)(=O)N(CCCC(=O)N1CCOCC1)c1cc2oc(-c3ccc(F)cc3)c(-c3ncc[nH]3)c2cc1C1CC1` [Example 103, N-[5-cyclopropyl-2-(4-fluorophenyl)-3-(1H-imidazol-2-yl)-1-benzofuran-6-yl]-N-[4-(morpholin-4-yl)-4-oxobutyl]methanesulfonamide]: the results for the pIC50 in assay [1], in assay [2] and in assay [4] were 8.10, 6.40 and 7.26, respectively. Moreover, in assay [3], the “C316Y/1a Fold Resistance” value stood at 50 fold. The pEC50 in assay [5] (setting [7]) is 7.35; in assay [5] (setting [8]), 6.25; in assay [5] (setting [9]), 7.35; in assay [5] (setting [10]), 7.35; in assay [6] (setting [11]), 6.94; in assay [6] (setting [12]), 7.86. Moreover, in assay [6] (setting [13]), the pEC50 is 7.86.
As to `CS(=O)(=O)N(Cc1sc(Br)nc1C(F)(F)F)c1ccc2c(-c3ncc[nH]3)c(-c3ccccc3)oc2c1` [Example 22, N-{[2-bromo-4-(trifluoromethyl)-1,3-thiazol-5-yl]methyl}-N-[3-(1H-imidazol-2-yl)-2-phenyl-1-benzofuran-6-yl]methanesulfonamide], the results for the pIC50 in assay [1], in assay [2] and in assay [4] were 6.80, 6.75 and 7.26, respectively. Moreover, in assay [3], the “C316Y/1a Fold Resistance” value is on record as 1 fold. The pEC50 in assay [5] (setting [7]) is 5.62; in assay [5] (setting [9]), 5.62; in assay [5] (setting [10]), 5.62; in assay [6] (setting [12]), 6.06; in assay [6] (setting [13]), 6.06.
On to `Cc1ncsc1CCN(c1cc2oc(-c3ccc(F)cc3)c(-c3ncc[nH]3)c2cc1C1CC1)S(C)(=O)=O` [Example 78, N-[5-cyclopropyl-2-(4-fluorophenyl)-3-(1H-imidazol-2-yl)-1-benzofuran-6-yl]-N-[2-(4-methyl-1,3-thiazol-5-yl)ethyl]methanesulfonamide], for which the figures for the pIC50 in assay [1], in assay [2] and in assay [4] were 8.40, 6.97 and 7.89, respectively. Moreover, the “C316Y/1a Fold Resistance” value in assay [3] was found to be 27 fold. The negative logarithm of the EC50 (pEC50) is 7.41 in assay [5] (setting [7]); 5.97 in assay [5] (setting [8]); 7.41 in assay [5] (setting [9]); 7.41 in assay [5] (setting [10]); 6.29 in assay [6] (setting [11]); 7.80 in assay [6] (setting [12]). For the same compound, the pEC50 in assay [6] (setting [13]) was 7.80.
Turning to `CC(C)(C)Oc1ncc(-c2ncc(CN(c3ccc4c(-c5ncc[nH]5)c(-c5ccccc5)oc4c3)S(C)(=O)=O)s2)c(OC(C)(C)C)n1` [Example 27, N-{[2-(2,4-di-tert-butoxypyrimidin-5-yl)-1,3-thiazol-5-yl]methyl}-N-[3-(1H-imidazol-2-yl)-2-phenyl-1-benzofuran-6-yl]methanesulfonamide], the negative logarithm of the IC50 (pIC50) was 6.67 in assay [1], 5.42 in assay [2] and 7.00 in assay [4]. In addition, in assay [3], the “C316Y/1a Fold Resistance” value is 18 fold. In addition, the negative logarithm of the EC50 (pEC50) in assay [5] (setting [7]) is 6.06; in assay [5] (setting [8]) it was 5.00; in assay [5] (setting [9]) it was 6.06; in assay [5] (setting [10]), 6.06; in assay [6] (setting [11]), 5.26; in assay [6] (setting [12]) it was 7.12. Further, in assay [6] (setting [13]), the pEC50 was 7.12.
`CS(=O)(=O)N(CC(O)CO)c1cc2oc(-c3ccc(F)cc3)c(-c3ncc[nH]3)c2cc1C1CC1` (stereo not shown) [Example 93, N-[5-cyclopropyl-2-(4-fluorophenyl)-3-(1H-imidazol-2-yl)-1-benzofuran-6-yl]-N-(2,3-dihydroxypropyl)methanesulfonamide]: the pIC50 in assay [1] is 8.30; in assay [2], 5.80; in assay [4] it was 6.93. In addition, the “C316Y/1a Fold Resistance” value in assay [3] was 320 fold. The pEC50 in assay [5] (setting [7]) is 7.08; in assay [5] (setting [8]), 6.04; in assay [5] (setting [9]), 7.08; in assay [5] (setting [10]) it was 7.08; in assay [6] (setting [11]), 6.06; in assay [6] (setting [12]), 7.20. Further, the pEC50 in assay [6] (setting [13]) was 7.20.
Consider `CC(C)CCN(c1cc2oc(-c3ccc(F)cc3)c(-c3nccc(=O)[nH]3)c2cc1C1CC1)S(C)(=O)=O` [Example 161, N-[5-cyclopropyl-2-(4-fluorophenyl)-3-(6-oxo-1,6-dihydropyrimidin-2-yl)-1-benzofuran-6-yl]-N-(3-methylbutyl)methanesulfonamide], for which the results for the negative logarithm of the IC50 (pIC50) in assay [1], in assay [2] and in assay [4] were 7.32, 6.66 and 6.10, respectively. For the same compound, the “C316Y/1a Fold Resistance” value in assay [3] turned out to be 5 fold. Further, the pEC50 in assay [5] (setting [7]) is 6.91; in assay [5] (setting [8]), 5.10; in assay [5] (setting [9]), 6.91; in assay [5] (setting [10]), 6.91; in assay [6] (setting [11]) it was 5.00; in assay [6] (setting [12]) it was 6.73. Moreover, in assay [6] (setting [13]), the pEC50 was 6.73.
